Measured values from publication PMC12067128, “Macrocyclization: Enhancing Drug-like Properties of Discoidin Domain Receptor Kinase Inhibitors” (ACS Medicinal Chemistry Letters, 2025).
pIC50: −log10 of the molar value.

Experiments:
[1] = target: T1, DDR1 (Homo sapiens, UniProt Q08345); assay: PathHunter U2OS DDR1 Functional Assay (DDR1 cellular assay); assay type: cell-based; conditions: U2OS PathHunter cells, collagen II stimulation; read-out: Cell DDR1 IC50
T1 construct: ProLink™ (PK) tagged full-length DDR1b; host or cells: U2OS human osteosarcoma cells (PathHunter U2OS DDR1)
T1 sequence (Q08345 19-913): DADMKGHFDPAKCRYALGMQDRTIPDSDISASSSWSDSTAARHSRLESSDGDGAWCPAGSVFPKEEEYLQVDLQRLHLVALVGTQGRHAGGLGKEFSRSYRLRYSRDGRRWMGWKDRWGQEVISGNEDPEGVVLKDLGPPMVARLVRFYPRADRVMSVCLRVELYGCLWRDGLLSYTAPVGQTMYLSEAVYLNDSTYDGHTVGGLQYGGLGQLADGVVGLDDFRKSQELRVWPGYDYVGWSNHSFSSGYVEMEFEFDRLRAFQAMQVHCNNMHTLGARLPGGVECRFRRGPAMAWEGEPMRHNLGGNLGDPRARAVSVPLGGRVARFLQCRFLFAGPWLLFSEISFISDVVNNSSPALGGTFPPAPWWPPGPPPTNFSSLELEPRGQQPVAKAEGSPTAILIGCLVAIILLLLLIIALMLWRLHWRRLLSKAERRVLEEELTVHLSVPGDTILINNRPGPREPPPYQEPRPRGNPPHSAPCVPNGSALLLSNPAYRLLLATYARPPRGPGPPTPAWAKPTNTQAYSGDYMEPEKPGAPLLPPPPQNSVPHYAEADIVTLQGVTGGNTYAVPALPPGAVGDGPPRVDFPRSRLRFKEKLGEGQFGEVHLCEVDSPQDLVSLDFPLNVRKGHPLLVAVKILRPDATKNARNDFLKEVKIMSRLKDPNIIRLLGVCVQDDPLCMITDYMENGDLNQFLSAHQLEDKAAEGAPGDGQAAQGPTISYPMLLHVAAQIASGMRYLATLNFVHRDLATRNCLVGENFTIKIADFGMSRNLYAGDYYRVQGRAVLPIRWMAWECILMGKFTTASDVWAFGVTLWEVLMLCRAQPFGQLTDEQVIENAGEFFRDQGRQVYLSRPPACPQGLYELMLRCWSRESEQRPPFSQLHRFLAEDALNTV
Procedure: page 17: In vitro Biology DDR1 cellular assay The activity of Discoidin Domain-containing Receptor protein kinase (DDR) inhibitors was determined using the PathHunter® U2OS DDR1 Functional Assay which employs Enzyme Fragment Complementation (EFC) technology, where the β-galactosidase (β-gal) enzyme is split into two fragments, ProLink (PK) and Enzyme Acceptor (EA). Independently these fragments […] β-gal enzyme. In the PathHunter® U2OS DDR1 Functional Assay, the U2OS human osteosarcoma cell line is modified to co-express a ProLinkTM (PK) tagged full-length DDR1b and an Enzyme Acceptor (EA) tagged SH2 domain. Collagen II, as a ligand, induces activation of DDR1b which results in cross-phosphorylation. The SH2-EA fusion protein then specifically binds the phosphorylated receptor resulting in complementation of the two fragments of β-gal and formation of a functional enzyme. β-gal activity is then quantitatively detected using a chemiluminescent substrate. PathHunter® Human U2OS DDR1 cells were prepared in AssayCompleteTM Cell Plating 16 Reagent (DiscoverX 93-0563R16A) and plated at 5000 cells/well in a 384-well white, clear-bottom, sterile plate (ThermoFisher 142762) and incubated for 90 minutes at 37 °C, 5% CO2. Test compounds were serially diluted from a top concentration of 10 mM (1000x final assay concentration) directly in a 384-well low-volume polypropylene plate (Greiner bio-one 784201) using an Echo 555 acoustic liquid handler (Labcyte). Test compounds were diluted in AssayCompleteTM Cell Plating 16 Reagent then added to cells using an Integra ViaFlow384 electronic reagent dispenser and pre-incubated at 37 °C, 5% CO2 for 30 minutes. Following compound pre-incubation, the cells were stimulated with 20 μg/ml Bovine Type II Collagen (DiscoverX 92-1090) with incubation for 20 hours at 37 °C, 5% CO2. Next, PathHunter Detection Reagent (DiscoverX 93-[…]) was added to the cells, incubated for 60 minutes at 25 °C in the dark, prior to capturing the chemiluminescent signal on a PHERAstar (BMG LABTECH). The percentage of inhibition was calculated for each concentration of compound using a 0.1% DMSO vehicle/Collagen II control response as a 0% inhibition and a 10 nM Dasatinib/Collagen II positive 17 page 18: control response as a 100% inhibition. The final assay concentration of the top of the test compound CRC was 10 μM. 18

[2] = target: T2, Pgp (Homo sapiens, UniProt P08183); assay: Pgp substrate assessment from Caco-2 permeability with/without Pgp inhibitor; assay type: in vitro ADME
T2 construct: host or cells: Caco-2 cells
T2 sequence (P08183 whole entry): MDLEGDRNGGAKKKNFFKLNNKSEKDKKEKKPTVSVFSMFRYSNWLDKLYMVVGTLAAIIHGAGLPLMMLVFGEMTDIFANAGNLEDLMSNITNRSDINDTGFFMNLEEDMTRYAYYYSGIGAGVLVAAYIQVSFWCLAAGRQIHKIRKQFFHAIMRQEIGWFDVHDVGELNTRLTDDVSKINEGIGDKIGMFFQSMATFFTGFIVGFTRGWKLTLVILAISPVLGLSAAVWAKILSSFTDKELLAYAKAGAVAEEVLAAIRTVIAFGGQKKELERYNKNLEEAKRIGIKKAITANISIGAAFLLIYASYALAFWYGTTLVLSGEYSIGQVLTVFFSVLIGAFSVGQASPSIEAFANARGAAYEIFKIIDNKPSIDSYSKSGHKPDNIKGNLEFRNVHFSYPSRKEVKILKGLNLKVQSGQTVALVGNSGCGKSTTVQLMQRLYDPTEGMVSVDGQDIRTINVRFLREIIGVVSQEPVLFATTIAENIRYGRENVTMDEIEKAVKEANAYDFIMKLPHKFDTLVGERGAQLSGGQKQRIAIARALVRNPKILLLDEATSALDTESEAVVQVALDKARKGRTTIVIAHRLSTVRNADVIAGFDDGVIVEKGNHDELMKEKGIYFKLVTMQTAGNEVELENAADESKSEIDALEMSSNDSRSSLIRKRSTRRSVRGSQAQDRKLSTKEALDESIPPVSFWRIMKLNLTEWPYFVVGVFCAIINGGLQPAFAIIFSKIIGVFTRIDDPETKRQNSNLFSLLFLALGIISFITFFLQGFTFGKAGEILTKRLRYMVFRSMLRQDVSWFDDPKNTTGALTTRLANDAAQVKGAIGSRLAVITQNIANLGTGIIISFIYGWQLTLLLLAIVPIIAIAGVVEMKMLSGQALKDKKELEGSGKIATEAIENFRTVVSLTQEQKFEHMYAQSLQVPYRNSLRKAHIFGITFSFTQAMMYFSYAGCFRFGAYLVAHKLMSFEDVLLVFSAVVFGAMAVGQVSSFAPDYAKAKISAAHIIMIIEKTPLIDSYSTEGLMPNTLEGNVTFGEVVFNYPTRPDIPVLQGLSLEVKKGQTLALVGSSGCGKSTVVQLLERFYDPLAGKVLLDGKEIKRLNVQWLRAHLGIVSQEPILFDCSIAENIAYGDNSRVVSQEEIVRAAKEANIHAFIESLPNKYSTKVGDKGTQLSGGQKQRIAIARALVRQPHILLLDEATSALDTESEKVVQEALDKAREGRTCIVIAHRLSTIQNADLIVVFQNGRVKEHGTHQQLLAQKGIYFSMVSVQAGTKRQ
Procedure: Lucifer Yellow (LY) was added to the apical buffer in all wells to assess viability of the cell layer. As LY cannot freely permeate lipophilic barriers, a high degree of LY transport indicates poor integrity of the cell layer and wells with a LY Papp > 10 x 10-6 cm/s were rejected. Compound recovery from the wells was determined from MS responses (normalised to internal standard) in donor and acceptor chambers at the end of incubation compared to response in the donor chamber pre- […]
which may reduce the reliability of a result.
Caco-2 membrane permeability assay
Caco-2 cells (ECACC) were cultured in DMEM, 10% FBS, 1% NEAA, Hepes buffer 10 mM and in 50 U/mL penicillin and […] streptomycin. For transport studies, 200,000 cells/well were seeded on Millicell 24-well cell culture plates. After 24 hours of incubation at 37 °C and 5% CO2, the medium was changed with Enterocyte Differentiation Medium (Becton Dickinson), which allows Caco-2 cells to establish within three days a differentiated enterocyte monolayer. The permeability of the compounds across the cells’ monolayer was determined by measuring their transport in both directions: apical to basolateral (A → B) and basolateral to apical (B → A). For A → B directional transport, the donor working solution with test article 10 m M) was added to the apical (A) compartment and HBSS (pH 7.4) was added to the basolateral (B). […] The Papp expressed as nm/sec was calculated as follows: Papp (nm/sec) = (Vr/C0) x (1/A) x (Cr(t)/T) x 1000 000. […]
Vr is the volume of the solution in the receiving compartment (mL); C0 is initial test compound concentration in the donor compartment (expressed as area ratio); A is the membrane surface area (cm2); Cr (t) = measured concentration of the receiver well at time T120 (expressed as area ratio) and T is time of incubation (sec). Efflux ratio was also measured to understand if the compounds undergo active efflux: Efflux ratio = Papp [B > A] / Papp [A > B]. […]

[3] = BRlogD chromatographic lipophilicity; assay type: physicochemical; conditions: XBridge Shield RP18, pH 7.0, 60% acetonitrile
Procedure: The original method was described in a previous paper.e Briefly, a HPLC Thermo Fisher Scientific Dionex Ultimate 3000 instrument equipped with a Low-Pressure Mixing Gradient Pump LPG-3400 SD, ACC-3000 autosampler with termostatable column compartment, a DAD-3000 RS Detector and Chromeleon Data System Version 7.2.10 was used. Deionized water and HPLC grade acetonitrile were used throughout. The mobile phases consisted of 20 mM ammonium acetate at pH 7.0 and acetonitrile 60% v/v. Samples were dissolved in a 1:1 mixture of buffer/acetonitrile in the concentration range of 50–100 ug/mL. A 10uL volume of each solution was injected at 30°C and flow rate was 1 mL/min. The dead time, t0, was determined by monitoring the baseline disturbance.
retention time (tR) was measured on a XBridgeTM Shield RP18 (Waters, 5cm x 4.6 mm, 5 µm particle size, 130Å pore size). Isocratic log k’ (capacity factor k’ = (tR - t0)/t0) values were measured. The relationship between log D and log k’60 has been determined previously and is reported below (Eq.
We termed this log D as BRlogD.

[4] = log kW IAM (immobilized artificial membrane chromatography); assay type: physicochemical; conditions: lipophilicity descriptor, phospholipid interaction
Source text: Lipophilicity has been obtained in four different systems. BRlogD and ChromlogD are chromatographic surrogates of log Doct and, despite showing different values, are linearly correlated (Figure S4). Log k′ 80 PLRP-S is a surrogate of log Dtol. Log kw ^IAM mimics the interaction between the compounds and the phospholipids of membranes. The combination of the experimental lipophilicity descriptors is essential to evaluate lipophilicity in different regions of the membrane bilayer. This complete lipophilicity profile may give an idea of the permeability potential of poorly soluble compounds for which standard permeability measurements are unreliable. […] This is supported by its low IC50 value in the cell-based assay.

[5] = Δlog kW IAM polarity descriptor; assay type: physicochemical; conditions: polarity in aqueous medium
Procedure: (§1) Polarity is quantified by two descriptors: EPSA and Δlog kw ^IAM. The first is measured in an almost fully nonpolar environment, and the second describes polarity in an aqueous medium. […] This is also in line with the higher solubility of KIMCs over 1.

[6] = EPSA polarity descriptor; assay type: physicochemical; conditions: almost fully nonpolar environment; polarity in nonpolar environment
Procedure: as §1

[7] = Chamelogk chameleonicity descriptor; assay type: physicochemical; conditions: >0.6 = chameleons, <0.6 = non-chameleons
Procedure: Finally, chameleonicity was measured with the recently described Chamelogk method (Table ), where 0.6 is the threshold value to distinguish chameleons from non-chameleons.

[8] = test system: MDCK-WT wild-type cells; assay: MDCK-WT permeability assay

SMILES | pIC50 [1] | Pgp substrate ([2]; Caco-2) | BRlogD [3] | log kW^IAM [4] | Δlog kW^IAM [5] | EPSA [6] [A^2] | Chamelogk [7] | Pgp substrate ([2]; Caco-2 model) | permeability in the MDCK model (in words) [8]
c1cc2nc(n1)Nc1cnn(c1)CCCNCCOc1ccc(cc1)N2 [Compound 6a] | 5.90 | YES | -0.29 | 1.96 | 3.26 | 127 | 1.63 |  | 
Cn1cc2c3nc(ncc31)Nc1cnn(c1)CCCNC(=O)COc1ccc-2cc1 [Compound 5b] | 5.70 |  | 0.53 | 1.87 | 2.41 | 106 | 0.61 | YES | highly permeable
O=C1COc2ccc(cc2)Nc2ccnc(n2)Nc2cnn(c2)CCCN1 [Compound 6b] | < 5.50 |  | -0.03 | 1.53 | 2.58 | 108 | 1.95 | YES | moderately permeable
Cn1cc2c3nc(ncc31)Nc1cnn(c1)CCCNCCOc1ccc-2cc1 [Compound 5a] | 6.90 |  | 0.64 | 2.33 | 2.77 | 125 | 1.76 |  | 
